Patent US11840686B2, “Modulation of prekallikrein (PKK) expression” (Ionis Pharmaceuticals, Inc., priority 2013, dated 2023)
Strand notation (5' to 3'): a small letter for the sugar, then the base; units joined by * are phosphorothioate-linked, units joined directly phosphodiester-linked; [ ] holds rarer units or linkages, { } end groups; capitals alone tell only the bases. e = 2'-O-(2-methoxyethyl) (MOE); [5mC] = 5-methylcytosine; d = 2'-deoxy (DNA)

Tested on: human PKK mRNA
Assay: Antisense inhibition of human PKK mRNA in HepaRG cells, 5,000 nM (Example 2)
Format: cell-based
Method: Additional antisense oligonucleotides were designed targeting a PKK nucleic acid and were tested for their effects on PKK mRNA in vitro.
The chimeric antisense oligonucleotides in the tables below were designed as 5-10-5 MOE gapmers, 4-9-4 MOE gapmers, 4-10-4 MOE gapmers, 4-10-3 MOE gapmers, 3-10-4 MOE gapmers, or 3-10-3 MOE gapmers. The 5-10-5 MOE gapmers are 20 nucleosides in length, wherein the central gap segment comprises of ten 2′-deoxynucleosides and is flanked by wing segments on the 5′ direction and the 3′ direction comprising five nucleosides each. The 4-9-4 MOE gapmers are 17 nucleosides in length, wherein the central gap segment comprises of nine 2′-deoxynucleosides and is flanked by wing segments on the 5′ direction and the 3′ direction comprising four nucleosides each. The 4-10-4 MOE gapmers are 18 nucleosides in length, wherein the central gap segment comprises of ten 2′-deoxynucleosides and is flanked by wing segments on the 5′ direction and the 3′ direction comprising four nucleosides each. The 4-10-3 MOE gapmers are 17 nucleosides in length, wherein the central gap segment comprises of ten 2′-deoxynucleosides and is flanked by wing segments on the 5′ direction and the 3′ direction comprising four and three nucleosides respectively. The 3-10-4 MOE gapmers are 17 nucleosides in length, wherein the central gap segment comprises often 2′-deoxynucleosides and is flanked by wing segments on the 5′ direction and the 3′ direction comprising three and four nucleosides respectively. The 3-10-3 MOE gapmers are 16 nucleosides in length, wherein the central gap segment comprises of ten 2′-deoxynucleosides and is flanked by wing segments on the 5′ direction and the 3′ direction comprising three nucleosides each. Each nucleoside in the 5′ wing segment and each nucleoside in the 3′ wing segment has a 2′-O-methoxyethyl modification. The internucleoside linkages throughout each gapmer are phosphorothioate linkages. All cytosine residues throughout each gapmer are 5-methylcytosines. “Start site” indicates the 5′-most nucleoside to which the gapmer is targeted in the human gene sequence. “Stop site” indicates the 3′-most nucleoside to which the gapmer is targeted in the human gene sequence.
Cultured HepaRG™ cells at a density of 20,000 cells per well were transfected using electroporation with 5,000 nM antisense oligonucleotide. After a treatment period of approximately 24 hours, RNA was isolated from the cells and PKK mRNA levels were measured by quantitative real-time PCR. Human primer probe set RTS3454 was used to measure mRNA levels. PKK mRNA levels were adjusted according to total RNA content, as measured by RIBOGREEN®. The antisense oligonucleotides were tested in a series of experiments that had similar culture conditions. Results are presented as percent inhibition of PKK, relative to untreated control cells.

[1] = HepaRG cells, electroporation with 5,000 nM antisense oligonucleotide, approximately 24 hours, PKK mRNA by RT-PCR (RTS3454), relative to untreated control cells, Table 5 experiment
[2] = Table 8, HepaRG cells, electroporation with 5,000 nM antisense oligonucleotide, approx. 24 hours, PKK mRNA by RT-PCR (RTS3454), relative to untreated control cells
[3] = HepaRG cells, 5,000 nM antisense oligonucleotide, 5-10-5 gapmers, Table 16
[4] = Table 13, human PKK mRNA in HepaRG cells, 5-10-5 gapmers
[5] = HepaRG cells, electroporation, 5,000 nM antisense oligonucleotide, approx. 24 hours, primer probe set RTS3454, relative to untreated control cells, Table 12
[6] = Table 9 experiment, HepaRG cells, 20,000 cells per well, electroporation with 5,000 nM antisense oligonucleotide, approx. 24 hours, PKK mRNA by RT-PCR (RTS3454), relative to untreated control cells
[7] = Table 10 experiment, HepaRG cells, 20,000 cells per well, electroporation with 5,000 nM antisense oligonucleotide, approx. 24 hours, PKK mRNA by RT-PCR (RTS3454), relative to untreated control cells

547284 (antisense eA*eA*eA*eT*eG*dA*dA*dA*dT*dA*dA*dG*dT*dT*dG*e[5mC]*eT*eT*eG*e[5mC]) [compound 547284]
% inhibition [1]: 26%

548725 (DNA eA*eT*e[5mC]*dA*d[5mC]*dT*dG*dT*dA*d[5mC]*dT*dA*dG*eT*eT*eT*e[5mC]; antisense) [compound 548725]
% inhibition (HepaRG cells, 5,000 nM antisense oligonucleotide, human PKK mRNA, Table 18): 32%

547439 (antisense eT*e[5mC]*eT*eG*eA*dG*d[5mC]*dT*dG*dT*d[5mC]*dA*dG*d[5mC]*dT*eT*e[5mC]*eA*e[5mC]*e[5mC]) [compound 547439]
% inhibition [2]: 85%

547490 (antisense eG*eT*eA*eG*eA*d[5mC]*dA*d[5mC]*d[5mC]*dA*dG*dG*dT*dT*dG*e[5mC]*eT*e[5mC]*e[5mC]*e[5mC]) [compound 547490]
% inhibition (HepaRG cells, electroporation, 5,000 nM antisense oligonucleotide, approx. 24 hours, primer probe set RTS3454, relative to untreated control cells, Table 11): 55%

547680 (antisense eT*eA*eT*e[5mC]*eA*d[5mC]*dT*dG*dT*dA*d[5mC]*d[5mC]*dT*dA*dT*eA*eT*e[5mC]*eA*e[5mC]) [compound 547680]
% inhibition [3]: 41%

548749 (antisense eT*eG*eT*eA*d[5mC]*dT*dA*dG*dT*dT*dT*d[5mC]*d[5mC]*dT*eA*eT*eA*eA) [compound 548749]
% inhibition (human PKK mRNA, HepaRG cells, 5,000 nM antisense oligonucleotide, Table 18): 0%

547701 (antisense e[5mC]*eA*eT*e[5mC]*eA*d[5mC]*dT*dG*dT*dA*d[5mC]*d[5mC]*dT*dA*dT*eA*eA*e[5mC]*eT*eA) [compound 547701]
% inhibition [3]: 49%

546258 (eA*e[5mC]*eA*eG*e[5mC]*dG*dA*dA*dT*d[5mC]*dA*dT*d[5mC]*dT*dT*eT*eG*eT*eG*e[5mC]; antisense) [compound 546258]
% inhibition [2]: 74%

547372 (eG*eA*eT*eG*eG*dT*d[5mC]*d[5mC]*dG*dA*d[5mC]*dA*d[5mC]*dA*d[5mC]*eA*eA*eA*eA*eG; antisense) [compound 547372]
% inhibition (Table 7, HepaRG cells, electroporation with 5,000 nM antisense oligonucleotide, approx. 24 hours, PKK mRNA by RT-PCR (RTS3454), relative to untreated control cells): 32%

546979 (eA*e[5mC]*eT*eG*eT*dT*dG*dT*d[5mC]*d[5mC]*dA*dT*dA*dG*d[5mC]*eA*eG*e[5mC]*eA*eT; antisense) [compound 546979]
% inhibition [3]: 71%

547687 (antisense eA*e[5mC]*eT*eG*eT*d[5mC]*d[5mC]*dT*dA*dT*dA*dA*d[5mC]*dT*dA*eT*eA*eT*e[5mC]*eA) [compound 547687]
% inhibition [3]: 41%

547563 (eG*eT*eG*eG*eG*dA*dT*d[5mC]*dA*dG*dA*dG*dA*dA*dT*eG*eA*e[5mC]*eT*eA; antisense) [compound 547563]
% inhibition [4]: 48%

546895 (eT*eA*eT*e[5mC]*eA*d[5mC]*dT*dG*dT*d[5mC]*d[5mC]*dT*dA*dT*dG*eT*e[5mC]*eA*e[5mC]*eT; antisense) [compound 546895]
% inhibition (human PKK mRNA, HepaRG cells, 5-10-5 motif oligonucleotides targeting SEQ ID NO: 1 and 10): 77%

546912 (eA*e[5mC]*eA*eT*e[5mC]*dA*d[5mC]*dT*dG*dT*d[5mC]*d[5mC]*dT*dA*dT*eA*eA*e[5mC]*eT*eA; antisense) [compound 546912]
% inhibition [3]: 26%

547427 (eA*eA*eG*eA*eG*dT*dA*dA*d[5mC]*d[5mC]*dA*dG*dA*dG*d[5mC]*eT*e[5mC]*e[5mC]*e[5mC]*eT; antisense) [compound 547427]
% inhibition [2]: 79%

547552 (antisense e[5mC]*eT*e[5mC]*e[5mC]*e[5mC]*d[5mC]*dA*dT*dG*d[5mC]*dA*dT*dA*d[5mC]*dT*e[5mC]*eG*e[5mC]*e[5mC]*eT) [compound 547552]
% inhibition [5]: 53%

547717 (eA*e[5mC]*eT*e[5mC]*eT*dG*dG*d[5mC]*dA*d[5mC]*dT*dG*dG*dT*d[5mC]*eA*eT*eG*eG*eA; antisense) [compound 547717]
% inhibition [3]: 54%

547013 (eT*eG*eA*eG*eA*dT*dT*dG*dG*dT*dG*dG*dT*dG*dG*eG*eT*eG*eG*e[5mC]; antisense) [compound 547013]
% inhibition (HepaRG cells, 5,000 nM antisense oligonucleotide, 5-10-5 gapmers, Table 17): 0%

547568 (eG*e[5mC]*eA*e[5mC]*e[5mC]*d[5mC]*dT*dT*dT*dT*d[5mC]*dA*dT*dT*dG*eA*eG*eA*eT*eT; antisense) [compound 547568]
% inhibition [4]: 70%

546862 (eA*eA*e[5mC]*eT*eA*dT*dA*dA*d[5mC]*dA*dA*dT*dA*dT*d[5mC]*eA*e[5mC]*eT*eG*eT; antisense) [compound 546862]
% inhibition (human PKK mRNA in HepaRG cells, 5-10-5 gapmers, Table 14): 0%

547475 (antisense eT*eT*eT*eG*eT*dT*dA*d[5mC]*d[5mC]*dA*dA*dA*dG*dG*dA*eA*eT*eA*eT*eT) [compound 547475]
% inhibition [6]: 44% | % inhibition [7]: 42%

546172 (antisense eA*eA*e[5mC]*eA*e[5mC]*dT*dA*dT*d[5mC]*dT*dT*dT*d[5mC]*dA*dA*eG*eA*eA*eG*e[5mC]) [compound 546172]
% inhibition [1]: 81%

547357 (e[5mC]*eT*eT*eT*eA*dA*dT*dA*dG*dG*d[5mC]*dA*dA*dT*dT*eG*eT*eT*e[5mC]*e[5mC]; antisense) [compound 547357]
% inhibition (HepaRG cells, electroporation with 5,000 nM antisense oligonucleotide, approximately 24 hours, PKK mRNA by RT-PCR (RTS3454), relative to untreated control cells, Table 6 experiment): 78%

546270 (eA*e[5mC]*eA*e[5mC]*eT*dT*dA*d[5mC]*dA*d[5mC]*dT*dT*d[5mC]*dT*d[5mC]*eT*eT*e[5mC]*e[5mC]*eT; antisense) [compound 546270]
% inhibition [2]: 32%

547487 (antisense eT*eG*eT*eG*eT*dT*dT*dG*d[5mC]*dA*dA*dA*d[5mC]*dT*dA*eA*eG*eG*eG*eA) [compound 547487]
% inhibition [6]: 72% | % inhibition [7]: 61%

546328 (antisense eG*eA*eA*eG*e[5mC]*d[5mC]*d[5mC]*d[5mC]*dA*dT*d[5mC]*d[5mC]*dG*dG*dT*eT*eA*e[5mC]*e[5mC]*e[5mC]) [compound 546328]
% inhibition [6]: 84% | % inhibition [7]: 81%

547569 (eA*e[5mC]*eT*eA*e[5mC]*d[5mC]*dA*dT*dT*dT*dG*dG*dG*dT*dT*eG*eG*eT*eA*eG; antisense) [compound 547569]
% inhibition [4]: 9%

546350 (antisense e[5mC]*e[5mC]*e[5mC]*eT*eG*d[5mC]*dG*dG*dG*d[5mC]*dA*d[5mC]*dA*dG*d[5mC]*e[5mC]*eT*eT*e[5mC]*eA) [compound 546350]
% inhibition [6]: 88% | % inhibition [7]: 74%

547529 (antisense eA*e[5mC]*eA*e[5mC]*eA*d[5mC]*dA*dG*dT*d[5mC]*dA*dT*dG*dG*dA*eG*eA*eT*e[5mC]*eT) [compound 547529]
% inhibition [5]: 49%

546845 (eT*eG*eT*e[5mC]*e[5mC]*dT*dA*dT*dA*dT*d[5mC]*dA*d[5mC]*dT*dG*eT*e[5mC]*e[5mC]*eT*eA; antisense) [compound 546845]
% inhibition [4]: 75%

546795 (eG*eT*e[5mC]*eT*e[5mC]*dG*dA*dT*dG*dG*d[5mC]*dA*dA*dG*d[5mC]*eT*eG*eT*eA*e[5mC]; antisense) [compound 546795]
% inhibition [4]: 72%
